Experimental data from US20110053773A1, “METHODS OF IMPROVING NUTRITIONAL VALUE OF PLANTS” (UNIVERSITY OF TENNESSEE RESEARCH FOUNDATION, priority 2009, published 2011).

What was measured:
[1] = system: kale ‘Red Russian’; experiment: Yield, fresh weight of kale after insecticide, fungicide and PGRs (Example 4, Table 12); assay type: in vivo; conditions: 28 DA-A, Untreated Check 106.9
Protocol: (§1) Greenhouse and laboratory studies were conducted to ascertain the tolerance and nutritional quality differences following postemergence applications of the insecticide chlorpyrifos, the fungicide chlorothalonil, the PGRs mepiquat-chloride and paclobutrazol, and the safeners napthalic anhydride and isoxadifen-ethyl on kale ‘Red Russian’ and basil ‘Genovese’. Visual injury was rated based on general phytotoxicity, chlorosis, and visual stunting and each measurement was based on a percent scale from 0 to 100 where 0 equals no visual response and 100 equals complete plant death. Kale and basil were both harvested approximately 4 weeks after treatments and plants were pooled over replicates for content analysis of crude protein, crude amino acid content, acid detergent fiber, neutral detergent fiber, total fatty acids, and/or key mineral content (including Na, Ca, P, Mg, K, Fe, Mn, Zn, and Cu). In addition, the amounts of key individual amino acids (aspartic acid, threonine, glutamic acid, proline, glycine, cysteine, valine, leucine, isoleucine, methionine, and lysine) and composite classifications of fatty acid (saturated fatty acids, monounsaturated fatty acids, polyunsaturated fatty acids) were also analyzed from these sub-samples for kale (Tables 10-14).

[2] = system: basil ‘Genovese’; experiment: Yield, fresh weight of basil after insecticide, fungicide, PGRs and safeners (Example 4, Table 10); assay type: in vivo; conditions: DA-A, check 31.8
Protocol: as §1

[3] = system: basil 'Genovese'; experiment: Visual injury of basil after insecticide, fungicide, PGRs, safeners (Example 4)
Protocol: as §1

[4] = system: kale 'Red Russian'; experiment: Content analysis of kale: protein, amino acids, fiber, fatty acids, minerals (Example 4, Tables 12-14); assay type: in vivo; conditions: 28 DA-A; for Alanine, Percent Increase over the Untreated Check (on a % dry matter basis) / Aspartic acid, Percent Increase over the Untreated Check (on a % dry matter basis) / Cysteine, Percent Increase over the Untreated Check (on a % dry matter basis) / Glutamic acid, Percent Increase over the Untreated Check (on a % dry matter basis) / Glycine, Percent Increase over the Untreated Check (on a % dry matter basis) / Iso-leucine, Percent Increase over the Untreated Check (on a % dry matter basis) / Leucine, Percent Increase over the Untreated Check (on a % dry matter basis) / Lysine, Percent Increase over the Untreated Check (on a % dry matter basis) / Methionine, Percent Increase over the Untreated Check (on a % dry matter basis) / Proline, Percent Increase over the Untreated Check (on a % dry matter basis) / Threonine, Percent Increase over the Untreated Check (on a % dry matter basis) / Total Amino acids, Percent Increase over the Untreated Check (on a % dry matter basis) / Total Protein, Percent Increase over the Untreated Check (on a % dry matter basis) / Valine, Percent Increase over the Untreated Check (on a % dry matter basis): chlorothalonil ###
Protocol: as §1

[5] = system: basil 'Genovese'; experiment: Content analysis of basil: protein, minerals (Example 4, Tables 10-11); assay type: in vivo; conditions: 28 DA-A, rates g ai/ha: chlropyrifos 1120, chlorothalonil 2630, paclobutrazol 3.23, mepiquat-chloride 12.3, Isoxadifen 8, Napthalic anhydride 264, + NIS 0.25 % v/v
Procedure, shortened: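 Postemergence greenhouse applications of chlorpyrifos, chlorothalonil, mepiquat-chloride, paclobutrazol, napthalic anhydride or isoxadifen-ethyl. Injury rated visually for phytotoxicity, chlorosis and stunting on a 0–100% scale (0 = no response, 100 = plant death). Plants harvested ~4 weeks after treatment, pooled over replicates for nutrient content analysis.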

[6] = system: kale 'Red Russian'; experiment: Visual injury of kale after insecticide, fungicide, PGRs, safeners (Example 4)
Protocol: as §1

[7] = rates g ai/ha: chlropyrifos 1120, chlorothalonil 2630, paclobutrazol 3.23, mepiquat-chloride 12.3, + NIS 0.25 % v/v
[8] = rates g ai/ha: chlropyrifos 3370, chlorothalonil 7900, paclobutrazol 9.7, mepiquat-chloride 37, + NIS 0.25 % v/v
[9] = 7 DA-A, rates g ai/ha: chlropyrifos 1120, chlorothalonil 2630, paclobutrazol 3.23, mepiquat-chloride 12.3, Isoxadifen 8, Napthalic anhydride 264, + NIS 0.25 % v/v
[10] = 7 DA-A, rates g ai/ha: chlropyrifos 3370, chlorothalonil 7900, paclobutrazol 9.7, mepiquat-chloride 37, Isoxadifen 16, Napthalic anhydride 527, + NIS 0.25 % v/v
[11] = 14 DA-A, rates g ai/ha: chlropyrifos 1120, chlorothalonil 2630, paclobutrazol 3.23, mepiquat-chloride 12.3, Isoxadifen 8, Napthalic anhydride 264, + NIS 0.25 % v/v
[12] = 14 DA-A, rates g ai/ha: chlropyrifos 3370, chlorothalonil 7900, paclobutrazol 9.7, mepiquat-chloride 37, Isoxadifen 16, Napthalic anhydride 527, + NIS 0.25 % v/v
[13] = 28 DA-A, rates g ai/ha: chlropyrifos 1120, chlorothalonil 2630, paclobutrazol 3.23, mepiquat-chloride 12.3, Isoxadifen 8, Napthalic anhydride 264, + NIS 0.25 % v/v
[14] = 28 DA-A, rates g ai/ha: chlropyrifos 3370, chlorothalonil 7900, paclobutrazol 9.7, mepiquat-chloride 37, Isoxadifen 16, Napthalic anhydride 527, + NIS 0.25 % v/v
[15] = first-listed rate g ai/ha: chlropyrifos ###, paclobutrazol 3.2, mepiquat-chloride 12, + NIS 0.3 % v/v
[16] = second-listed rate g ai/ha: chlropyrifos ###, paclobutrazol 9.7, mepiquat-chloride 37, + NIS 0.3 % v/v
[17] = 7 DA-A, rates g ai/ha: chlropyrifos 1120, chlorothalonil 2630, paclobutrazol 3.23, mepiquat-chloride 12.3, + NIS 0.25 % v/v
[18] = 7 DA-A, rates g ai/ha: chlropyrifos 3370, chlorothalonil 7900, paclobutrazol 9.7, mepiquat-chloride 37, + NIS 0.25 % v/v
[19] = 14 DA-A, rates g ai/ha: chlropyrifos 1120, chlorothalonil 2630, paclobutrazol 3.23, mepiquat-chloride 12.3, + NIS 0.25 % v/v
[20] = 14 DA-A, rates g ai/ha: chlropyrifos 3370, chlorothalonil 7900, paclobutrazol 9.7, mepiquat-chloride 37, + NIS 0.25 % v/v
[21] = 28 DA-A, rates g ai/ha: chlropyrifos 1120, chlorothalonil 2630, paclobutrazol 3.23, mepiquat-chloride 12.3, + NIS 0.25 % v/v
[22] = 28 DA-A, rates g ai/ha: chlropyrifos 3370, chlorothalonil 7900, paclobutrazol 9.7, mepiquat-chloride 37, + NIS 0.25 % v/v

Compound: CCOP(=S)(OCC)Oc1nc(Cl)c(Cl)cc1Cl [chlropyrifos]
- Yield Fresh weight [1, 7]: 108.2 grams
- Yield Fresh weight [1, 8]: 110.1 grams
- Yield Fresh weight ([2]; rates g ai/ha: chlropyrifos 1120, chlorothalonil 2630, paclobutrazol 3.23, mepiquat-chloride 12.3, Isoxadifen 8, Napthalic anhydride 264, + NIS 0.25 % v/v): 24.6 grams
- Yield Fresh weight ([2]; rates g ai/ha: chlropyrifos 3370, chlorothalonil 7900, paclobutrazol 9.7, mepiquat-chloride 37, Isoxadifen 16, Napthalic anhydride 527, + NIS 0.25 % v/v): 32.9 grams
- Phytotoxicity Chlorosis [3, 9]: 8%
- Phytotoxicity General [3, 9]: 2%
- Phytotoxicity Stunting [3, 9]: 5%
- Phytotoxicity Chlorosis [3, 10]: 10%
- Phytotoxicity General [3, 10]: 2%
- Phytotoxicity Stunting [3, 10]: 13%
- Phytotoxicity Chlorosis [3, 11]: 3%
- Phytotoxicity General [3, 11]: 7%
- Phytotoxicity Stunting [3, 11]: 10%
- Phytotoxicity Chlorosis [3, 12]: 8%
- Phytotoxicity General [3, 12]: 2%
- Phytotoxicity Stunting [3, 12]: 10%
- Phytotoxicity Chlorosis [3, 13]: 5%
- Phytotoxicity General [3, 13]: 10%
- Phytotoxicity Stunting [3, 13]: 8%
- Phytotoxicity Chlorosis [3, 14]: 7%
- Phytotoxicity General [3, 14]: 2%
- Phytotoxicity Stunting [3, 14]: 12%
- Alanine, Percent Increase over the Untreated Check (on a % dry matter basis) [4, 15]: −1 % check
- Aspartic acid, Percent Increase over the Untreated Check (on a % dry matter basis) [4, 15]: 0 % check
- Cysteine, Percent Increase over the Untreated Check (on a % dry matter basis) [4, 15]: 0 % check
- Glutamic acid, Percent Increase over the Untreated Check (on a % dry matter basis) [4, 15]: 5 % check
- Glycine, Percent Increase over the Untreated Check (on a % dry matter basis) [4, 15]: −4 % check
- Iso-leucine, Percent Increase over the Untreated Check (on a % dry matter basis) [4, 15]: 0 % check
- Leucine, Percent Increase over the Untreated Check (on a % dry matter basis) [4, 15]: 0 % check
- Lysine, Percent Increase over the Untreated Check (on a % dry matter basis) [4, 15]: 6 % check
- Methionine, Percent Increase over the Untreated Check (on a % dry matter basis) [4, 15]: 2 % check
- Proline, Percent Increase over the Untreated Check (on a % dry matter basis) [4, 15]: −2 % check
- Threonine, Percent Increase over the Untreated Check (on a % dry matter basis) [4, 15]: −2 % check
- Total Amino acids, Percent Increase over the Untreated Check (on a % dry matter basis) [4, 15]: 1 % check
- Total Protein, Percent Increase over the Untreated Check (on a % dry matter basis) [4, 15]: 3 % check
- Valine, Percent Increase over the Untreated Check (on a % dry matter basis) [4, 15]: 1 % check
- ADF, Percent Increase Over the Untreated Check (on a % dry matter basis) [4, 7]: 1 % check
- Calcium, Percent Increase Over the Untreated Check (on a % dry matter basis) [4, 7]: 18 % check
- Copper, Percent Increase Over the Untreated Check (on a % dry matter basis) [4, 7]: 50 % check
- Iron, Percent Increase Over the Untreated Check (on a % dry matter basis) [4, 7]: 33 % check
- Magnesium, Percent Increase Over the Untreated Check (on a % dry matter basis) [4, 7]: 11 % check
- Manganese, Percent Increase Over the Untreated Check (on a % dry matter basis) [4, 7]: 39 % check
- NDF, Percent Increase Over the Untreated Check (on a % dry matter basis) [4, 7]: −8 % check
- Phosphorous, Percent Increase Over the Untreated Check (on a % dry matter basis) [4, 7]: 9 % check
- Potassium, Percent Increase Over the Untreated Check (on a % dry matter basis) [4, 7]: 4 % check
- Sodium, Percent Increase Over the Untreated Check (on a % dry matter basis) [4, 7]: 13 % check
- Zinc, Percent Increase Over the Untreated Check (on a % dry matter basis) [4, 7]: 18 % check
- ADF, Percent Increase Over the Untreated Check (on a % dry matter basis) [4, 8]: 9 % check
- Calcium, Percent Increase Over the Untreated Check (on a % dry matter basis) [4, 8]: 0 % check
- Copper, Percent Increase Over the Untreated Check (on a % dry matter basis) [4, 8]: 28 % check
- Iron, Percent Increase Over the Untreated Check (on a % dry matter basis) [4, 8]: 3 % check
- Magnesium, Percent Increase Over the Untreated Check (on a % dry matter basis) [4, 8]: 3 % check
- Manganese, Percent Increase Over the Untreated Check (on a % dry matter basis) [4, 8]: 16 % check
- NDF, Percent Increase Over the Untreated Check (on a % dry matter basis) [4, 8]: 1 % check
- Phosphorous, Percent Increase Over the Untreated Check (on a % dry matter basis) [4, 8]: 7 % check
- Potassium, Percent Increase Over the Untreated Check (on a % dry matter basis) [4, 8]: 1 % check
- Sodium, Percent Increase Over the Untreated Check (on a % dry matter basis) [4, 8]: 45 % check
- Zinc, Percent Increase Over the Untreated Check (on a % dry matter basis) [4, 8]: 10 % check
- Alanine, Percent Increase over the Untreated Check (on a % dry matter basis) [4, 16]: 6 % check
- Aspartic acid, Percent Increase over the Untreated Check (on a % dry matter basis) [4, 16]: 7 % check
- Cysteine, Percent Increase over the Untreated Check (on a % dry matter basis) [4, 16]: 6 % check
- Glutamic acid, Percent Increase over the Untreated Check (on a % dry matter basis) [4, 16]: 12 % check
- Glycine, Percent Increase over the Untreated Check (on a % dry matter basis) [4, 16]: 3 % check
- Iso-leucine, Percent Increase over the Untreated Check (on a % dry matter basis) [4, 16]: 6 % check
- Leucine, Percent Increase over the Untreated Check (on a % dry matter basis) [4, 16]: 6 % check
- Lysine, Percent Increase over the Untreated Check (on a % dry matter basis) [4, 16]: 11 % check
- Methionine, Percent Increase over the Untreated Check (on a % dry matter basis) [4, 16]: 0 % check
- Proline, Percent Increase over the Untreated Check (on a % dry matter basis) [4, 16]: 9 % check
- Threonine, Percent Increase over the Untreated Check (on a % dry matter basis) [4, 16]: 4 % check
- Total Amino acids, Percent Increase over the Untreated Check (on a % dry matter basis) [4, 16]: 7 % check
- Total Protein, Percent Increase over the Untreated Check (on a % dry matter basis) [4, 16]: 5 % check
- Valine, Percent Increase over the Untreated Check (on a % dry matter basis) [4, 16]: 7 % check
- ADF, Percent Increase Over the Untreated Check (on a % dry matter basis) [5]: −12 % check
- Calcium, Percent Increase Over the Untreated Check (on a % dry matter basis) [5]: 7 % check
- Copper, Percent Increase Over the Untreated Check (on a % dry matter basis) [5]: 8 % check
- Iron, Percent Increase Over the Untreated Check (on a % dry matter basis) [5]: 108 % check
- Magnesium, Percent Increase Over the Untreated Check (on a % dry matter basis) [5]: 12 % check
- Manganese, Percent Increase Over the Untreated Check (on a % dry matter basis) [5]: 28 % check
- NDF, Percent Increase Over the Untreated Check (on a % dry matter basis) [5]: −8 % check
- Phosphorous, Percent Increase Over the Untreated Check (on a % dry matter basis) [5]: 11 % check
- Potassium, Percent Increase Over the Untreated Check (on a % dry matter basis) [5]: 12 % check
- Protein, Percent Increase Over the Untreated Check (on a % dry matter basis) [5]: 20 % check
- Sodium, Percent Increase Over the Untreated Check (on a % dry matter basis) [5]: 83 % check
- Soluble protein, Percent Increase Over the Untreated Check (on a % dry matter basis) [5]: 196 % check
- Zinc, Percent Increase Over the Untreated Check (on a % dry matter basis) [5]: 33 % check
- Phytotoxicity Chlorosis [6, 17]: 1%
- Phytotoxicity General [6, 17]: 14%
- Phytotoxicity Stunting [6, 17]: 9%
- Phytotoxicity Chlorosis [6, 18]: 0%
- Phytotoxicity General [6, 18]: 13%
- Phytotoxicity Stunting [6, 18]: 6%
- Phytotoxicity Chlorosis [6, 19]: 15%
- Phytotoxicity General [6, 19]: 4%
- Phytotoxicity Stunting [6, 19]: 9%
- Phytotoxicity Chlorosis [6, 20]: 13%
- Phytotoxicity General [6, 20]: 5%
- Phytotoxicity Stunting [6, 20]: 10%
- Phytotoxicity Chlorosis [6, 21]: 6%
- Phytotoxicity General [6, 21]: 4%
- Phytotoxicity Stunting [6, 21]: 8%
- Phytotoxicity Chlorosis [6, 22]: 3%
- Phytotoxicity General [6, 22]: 3%
- Phytotoxicity Stunting [6, 22]: 6%
